From patent US4016159A, “Acylamino-cephem-carboxylic acids containing an amidino or guanidino group in the molecule” (Hoechst Aktiengesellschaft, priority 1973, dated 1977) come the findings set out here.

Converted amounts (≈) assume the structure as drawn.

Common to all, as to assay type: cell-based
The subject of assay [1] is Staphylococcus aureus 285. Briefly: Minimum inhibition concentration (MIC), Table 1. The settings on record: Staphylococcus aureus, 285, Germ: Staphylococcus aureus 285; read-out: Minimum inhibition concentration (MIC). From the text: (§1) Minimum inhibition concentration (MIC) in γ/ml
Germ: Staphylococcus aureus 285

A further assay relates to Proteus mirabilis. Kind of assay: Minimum inhibition concentration (MIC), Table 2. The settings on record: Germ: Proteus mirabilis; read-out: Minimum inhibition concentration (MIC). From the text:
Minimum inhibition concentration (MIC) in /ml

A further assay has as its system Streptococcus pyogenes A. Briefly: Minimum inhibition concentration (MIC), Table 3. To be noted: Germ: Streptococcus pyogenes A; read-out: Minimum inhibition concentration MIC. The text has this:
Minimum inhibition concentration MIC in γ/ml
Germ: Streptococcus pyogenes A

In another assay the test system is Streptococcus D. Briefly: Minimum inhibition concentration (MIC), Table 4. To be noted: Streptococcus, Germ: Streptococcus D; read-out: Minimum inhibition concentration (MIC).
Description: as §1

Assay [2] concerns Staphylococcus aureus SG 511. Briefly: Minimum inhibition concentration (MIC), Table 5. The settings on record: Staphylococcus aureus, SG511, Germ: Staphylococcus aureus SG 511; read-out: Minimum inhibition concentration (MIC).
Description: as §1
Germ: Staphylococcus aureus SG 511

Take `O=C(Cc1ccc(C2=NCCN2)cc1)NC1C(=O)N2C(C(=O)O)=C(CSc3nc4ccccc4s3)CSC12` (stereo not shown) [Example 118, 3-[(benzothiazole-2-yl)-thiomethyl]-7-[4-(imidazoline-2-yl)-phenylacetamido]-Δ3-cephem-4-carboxylic acid]: the MIC in assay [1] is 0.156 to 0.391 mg/L (≈ 0.276 to 0.691 µM); in the assay on Proteus mirabilis it was 25 mg/L (≈ 44.2 µM); with Streptococcus pyogenes A, 0.000391 to 0.0078 mg/L (≈ 0.000691 to 0.0138 µM); with Streptococcus D it was 0.196 to 6.25 mg/L (≈ 0.346 to 11 µM); in assay [2], 0.0625 to 0.078 mg/L (≈ 0.11 to 0.138 µM).
For `N=C(N)c1ccc(CC(=O)NC2C(=O)N3C(C(=O)O)=C(CSc4nncs4)CSC23)s1` (stereo not shown) [Example 3, 3-[(1,3,4-thiadiazole-2-yl)-thiomethyl]-7-(5-amidinothienyl-acetamido)-Δ3-cephem-4-ccarboxylic acid], in that order: 0.156 to 0.391 mg/L (≈ 0.314 to 0.787 µM), 3.1 to 12.5 mg/L (≈ 6.24 to 25.2 µM), 0.008 to 0.0156 mg/L (≈ 0.0161 to 0.0314 µM), 10 to 50 mg/L (≈ 20.1 to 101 µM) and 0.0625 to 0.078 mg/L (≈ 0.126 to 0.157 µM).
For `CCc1nnc(SCC2=C(C(=O)O)N3C(=O)C(NC(=O)Cc4ccc(C5=NCCCN5)cc4)C3SC2)s1` (stereo not shown) [Example 121, 3-[(5-ethyl-1,3,4-thiadiazole-2-yl)-thiomethyl]-7-[4-(1,4,5,6-tetrahydropyrimide-2-yl)-phenylacetamido]-Δ3-cephem-4-carboxylic acid], in that order: 0.156 to 0.391 mg/L (≈ 0.279 to 0.7 µM), 25 mg/L (≈ 44.7 µM), 0.000391 to 0.0078 mg/L (≈ 0.0007 to 0.014 µM), 10 to 50 mg/L (≈ 17.9 to 89.5 µM) and 0.0196 to 0.0391 mg/L (≈ 0.0351 to 0.07 µM).
For the compound `Cc1nnc(SCC2=C(C(=O)O)N3C(=O)C(NC(=O)Cc4ccc(C(=N)N)cc4)C3SC2)o1` (stereo not shown) [Example 60, 3-[(5-methyl-1,3,4-oxadiazole-2-yl)-thiomethyl]-7-(4-amidinophenylacetamido)-Δ 3-cephem-4-carboxylic acid], the MIC in assay [1] is 0.5 to 1.25 mg/L (≈ 1.02 to 2.56 µM); in the assay on Proteus mirabilis, 3.1 to 12.5 mg/L (≈ 6.35 to 25.6 µM); in the assay with Streptococcus pyogenes A it was 0.000391 to 0.0078 mg/L (≈ 0.0008 to 0.016 µM); in the assay on Streptococcus D, 10 to 50 mg/L (≈ 20.5 to 102 µM); in assay [2] it was 0.0625 to 0.078 mg/L (≈ 0.128 to 0.16 µM).
Take `N=C(N)c1ccc(CC(=O)NC2C(=O)N3C(C(=O)O)=C(CSc4nccs4)CSC23)cc1` (stereo not shown) [Example 4, 3-[(thiazole-2-yl)-thiomethyl]-7-(4-amidino-phenylacetamido)-Δ3-cephem-4-carboxylic acid]: the MIC was 0.156 to 0.391 mg/L (≈ 0.319 to 0.799 µM) in assay [1]; 25 mg/L (≈ 51.1 µM) with Proteus mirabilis; 0.000391 to 0.0078 mg/L (≈ 0.000799 to 0.0159 µM) in the assay on Streptococcus pyogenes A; 10 to 50 mg/L (≈ 20.4 to 102 µM) in the assay with Streptococcus D; 0.0196 to 0.0391 mg/L (≈ 0.04 to 0.0799 µM) in assay [2].
